Literature values in paper PMC11360046 (ACS Omega, 2024).

System: BRD4 BD2
Details: read-out: IC50 BRD4 BD2; I-58

For `CN1CCC(Nc2cccc(CN3c4ccccc4C=C4c5c(cccc53)C(=O)N4C)c2)CC1` [Compound I-58, 1-methyl-6-(3-((1-methylpiperidin-4-yl)amino)benzyl)-1,6-dihydro-2H-benzo[6,7]azepino[4,3,2-cd]isoindol-2-one], the IC50 is given as 1.88 nM.
